According to patent publication US12497393B2, “β-lactam compound, use thereof and preparation method therefor” (priority 2020, dated 2025):
Values after ≈ are worked out from the molar mass of the structure shown. Read-outs that look alike come from different tables or passages of the source. Where a SMILES comes first, the peptide text is derived from it. Bridges are numbered along the chain shown (N, C = ends). [ ]: non-standard residue; d: D form. The star is where a group is joined. Heptanoyl(6-Me) = CC(C)CCCCC(=O)*; Dab = NCC[C@H](N)C(=O)O

Experiments:
Assay in all cases: Antibacterial activity MIC assay (two-fold dilution agar plating)
Type in all cases: cell-based
Shigella flexneri = Shigella flexneri ATCC 12022
Protocol: (§1) Antibacterial Activity-Evaluating Method (MIC Assay)
(§2) In this study, the compounds of the present invention were tested for their antibacterial activities by using two-fold dilution agar plating method and Denley Multipoint Inoculator A400 according to the guidelines of the CLSI/NCCLS standard. The tested strains were amplified by hydrolyzed casein peptone (Mueller-Hinton Agar) broth and Brain and Heart Infusion. The strains used in this study were bacterial strains that were purchased from ATCC or clinically isolated in Chinese hospitals. Aztreonam, polymyxin or levofloxacin was used as positive control. The drugs were diluted with hydrolyzed casein peptone broth to the desired concentrations including 128.0, 64.0, 32.0, 16.0, 8.0, 4.0, 2.0, 1.0, 0.5, 0.25, 0.125, 0.06 and 0.03 μg/mL, and then placed respectively into each well and mixed thoroughly. After inoculation, the tested strains were incubated for 18 hours at a constant temperature of 35° C., and their growth levels were observed. The drug concentration with no microbial growth in the well was recorded as the lowest Minimal Inhibitory Concentration (MIC).

Acinetobacter baumannii = details: for MIC: Acinetobacter baumannii, read-out: Minimal Inhibitory Concentration (MIC)
Protocol: as §1, §2

Enterobacter aerogenes = Enterobacter aerogenes ATCC 13048
Protocol: as §1, §2

Serratia marcescens = Serratia marcescens ATCC 21074
Protocol: as §1, §2

Escherichia coli = details: for MIC: Escherichia coli, read-out: Minimal Inhibitory Concentration (MIC)
Protocol: as §1, §2

Salmonella typhi = details: for Minimal Inhibitory Concentration (MIC): Salmonella typhi H901
Protocol: as §1, §2

Citrobacter freundii = Citrobacter freundii ATCC 43864
Protocol: as §1, §2

Providencia rettgeri = details: for Minimal Inhibitory Concentration (MIC): Providencia rettgeri ATCC 31052
Protocol: as §1, §2

Proteus vulgaris = details: for Minimal Inhibitory Concentration (MIC): Proteus vulgaris ATCC 29905
Protocol: as §1, §2

Pseudomonas aeruginosa = details: for MIC: read-out: Minimal Inhibitory Concentration (MIC)
Protocol: as §1, §2

Proteus mirabilis = details: for Minimal Inhibitory Concentration (MIC): Proteus mirabilis ATCC 49565
Protocol: as §1, §2

Enterobacter cloacae = details: for MIC: read-out: Minimal Inhibitory Concentration (MIC)
Protocol: as §1, §2

[1] = test system: Stenotrophomonas maltophilia; details: Stenotrophomonas maltophilia ATCC 13636
Protocol: as §1, §2

Klebsiella Pneumoniae = details: for MIC: Klebsiella pneumoniae, read-out: Minimal Inhibitory Concentration (MIC)
Protocol: as §1, §2

[2] = Acinetobacter baumannii ATCC 19606
[3] = Escherichia coli 08-85, mcr-1(+)
[4] = Escherichia coli 13-43, mcr-1(+)
[5] = Escherichia coli 13-66, mcr-1(+)
[6] = Escherichia coli 16-1, ESBLs(+)
[7] = Escherichia coli 16-7, ESBLs(−)
[8] = Escherichia coli 17-R28, CRE, NDM-1(+)
[9] = Escherichia coli ATCC 25922, ESBLs(−)
[10] = Escherichia coli ATCC 35218, ESBLs(+)
[11] = Escherichia coli CDC1001728, NDM-1(+)
[12] = Pseudomonas aeruginosa ATCC 27853
[13] = Enterobacter cloacae ATCC 43560
[14] = Enterobacter cloacae CDC1000654
[15] = Klebsiella Pneumoniae 09-20, mcr-1(+)
[16] = Klebsiella Pneumoniae 16-2, ESBLs(−)
[17] = Klebsiella Pneumoniae 16-14, ESBLs(+)
[18] = Klebsiella Pneumoniae ATCC 700603, ESBLs(+)
[19] = Klebsiella Pneumoniae ATCC BAA-2146, NDM-1(+)

CC1(C)[C@H](NC(=O)/C(=N\OC2(C(=O)O)CC2)c2nsc(N)n2)C(=O)N1OS(=O)(=O)O [Compound A-6]
Minimal Inhibitory Concentration (MIC) (Shigella flexneri): 0.06 µg/mL | Minimal Inhibitory Concentration (MIC) (Acinetobacter baumannii; Acinetobacter baumannii 16-16): >64 µg/mL | Minimal Inhibitory Concentration (MIC) (Acinetobacter baumannii; Acinetobacter baumannii 16-33): 16 µg/mL | Minimal Inhibitory Concentration (MIC) (Acinetobacter baumannii; [2]): 16 µg/mL | Minimal Inhibitory Concentration (MIC) (Enterobacter aerogenes): 1 µg/mL | Minimal Inhibitory Concentration (MIC) (Serratia marcescens): 1 µg/mL | Minimal Inhibitory Concentration (MIC) (Escherichia coli; [3]): 4 µg/mL | Minimal Inhibitory Concentration (MIC) (Escherichia coli; [4]): 4 µg/mL | Minimal Inhibitory Concentration (MIC) (Escherichia coli; [5]): 4 µg/mL | Minimal Inhibitory Concentration (MIC) (Escherichia coli; [6]): 0.5 µg/mL | Minimal Inhibitory Concentration (MIC) (Escherichia coli; [7]): 0.5 µg/mL | Minimal Inhibitory Concentration (MIC) (Escherichia coli; [8]): >64 µg/mL | Minimal Inhibitory Concentration (MIC) (Escherichia coli; [9]): 0.5 µg/mL | Minimal Inhibitory Concentration (MIC) (Escherichia coli; [10]): 0.25 µg/mL | Minimal Inhibitory Concentration (MIC) (Escherichia coli; [11]): 4 µg/mL | Minimal Inhibitory Concentration (MIC) (Salmonella typhi): 0.5 µg/mL | Minimal Inhibitory Concentration (MIC) (Citrobacter freundii): 0.25 µg/mL | Minimal Inhibitory Concentration (MIC) (Providencia rettgeri): ≤0.03 µg/mL | Minimal Inhibitory Concentration (MIC) (Proteus vulgaris): ≤0.03 µg/mL | Minimal Inhibitory Concentration (MIC) (Pseudomonas aeruginosa; Pseudomonas aeruginosa 16-11): 16 µg/mL | Minimal Inhibitory Concentration (MIC) (Pseudomonas aeruginosa; [12]): 16 µg/mL | Minimal Inhibitory Concentration (MIC) (Pseudomonas aeruginosa; Pseudomonas aeruginosa PAO1): 8 µg/mL | Minimal Inhibitory Concentration (MIC) (Proteus mirabilis): 1 µg/mL | Minimal Inhibitory Concentration (MIC) (Enterobacter cloacae; [13]): 0.5 µg/mL | Minimal Inhibitory Concentration (MIC) (Enterobacter cloacae; [14]): 64 µg/mL | Minimal Inhibitory Concentration (MIC) [1]: 32 µg/mL | Minimal Inhibitory Concentration (MIC) (Klebsiella Pneumoniae; [15]): 2 µg/mL | Minimal Inhibitory Concentration (MIC) (Klebsiella Pneumoniae; [16]): 0.5 µg/mL | Minimal Inhibitory Concentration (MIC) (Klebsiella Pneumoniae; [17]): 4 µg/mL | Minimal Inhibitory Concentration (MIC) (Klebsiella Pneumoniae; [18]): 64 µg/mL | Minimal Inhibitory Concentration (MIC) (Klebsiella Pneumoniae; [19]): 32 µg/mL

CC(C)CCCCC(=O)N[C@@H](CCN)C(=O)N[C@H](C(=O)N[C@@H](CCN)C(=O)N[C@H]1CCNC(=O)[C@H]([C@@H](C)O)NC(=O)[C@H](CCN)NC(=O)[C@H](CCN)NC(=O)[C@H](CC(C)C)NC(=O)[C@@H](CC(C)C)NC(=O)[C@H](CCN)NC1=O)[C@@H](C)O [Colistin B, colistin B, reference compound] ({Heptanoyl(6-Me)}-[Dab]T[Dab][Dab][Dab][dL]L[Dab][Dab]T; lactam 4-C)
Minimal Inhibitory Concentration (MIC) (Shigella flexneri): 0.5 µg/mL | Minimal Inhibitory Concentration (MIC) (Acinetobacter baumannii; Acinetobacter baumannii 16-16): 1 µg/mL | Minimal Inhibitory Concentration (MIC) (Acinetobacter baumannii; Acinetobacter baumannii 16-33): 2 µg/mL | Minimal Inhibitory Concentration (MIC) (Acinetobacter baumannii; [2]): 1 µg/mL | Minimal Inhibitory Concentration (MIC) (Enterobacter aerogenes): 2 µg/mL | Minimal Inhibitory Concentration (MIC) (Serratia marcescens): >64 µg/mL | Minimal Inhibitory Concentration (MIC) (Escherichia coli; [3]): 8 µg/mL | Minimal Inhibitory Concentration (MIC) (Escherichia coli; [4]): 8 µg/mL | Minimal Inhibitory Concentration (MIC) (Escherichia coli; [5]): 8 µg/mL | Minimal Inhibitory Concentration (MIC) (Escherichia coli; [6]): 0.5 µg/mL | Minimal Inhibitory Concentration (MIC) (Escherichia coli; [7]): 1 µg/mL | Minimal Inhibitory Concentration (MIC) (Escherichia coli; [9]): 1 µg/mL | Minimal Inhibitory Concentration (MIC) (Escherichia coli; [10]): 1 µg/mL | Minimal Inhibitory Concentration (MIC) (Escherichia coli; [11]): 1 µg/mL | Minimal Inhibitory Concentration (MIC) (Salmonella typhi): 1 µg/mL | Minimal Inhibitory Concentration (MIC) (Citrobacter freundii): 2 µg/mL | Minimal Inhibitory Concentration (MIC) (Providencia rettgeri): >64 µg/mL | Minimal Inhibitory Concentration (MIC) (Proteus vulgaris): >64 µg/mL | Minimal Inhibitory Concentration (MIC) (Pseudomonas aeruginosa; Pseudomonas aeruginosa 16-11): 4 µg/mL | Minimal Inhibitory Concentration (MIC) (Pseudomonas aeruginosa; [12]): 4 µg/mL | Minimal Inhibitory Concentration (MIC) (Pseudomonas aeruginosa; Pseudomonas aeruginosa PAO1): 8 µg/mL | Minimal Inhibitory Concentration (MIC) (Proteus mirabilis): >64 µg/mL | Minimal Inhibitory Concentration (MIC) (Enterobacter cloacae; [13]): >64 µg/mL | Minimal Inhibitory Concentration (MIC) (Enterobacter cloacae; [14]): 1 µg/mL | Minimal Inhibitory Concentration (MIC) [1]: >64 µg/mL | Minimal Inhibitory Concentration (MIC) (Klebsiella Pneumoniae; [15]): 16 µg/mL | Minimal Inhibitory Concentration (MIC) (Klebsiella Pneumoniae; [16]): 1 µg/mL | Minimal Inhibitory Concentration (MIC) (Klebsiella Pneumoniae; [17]): 1 µg/mL | Minimal Inhibitory Concentration (MIC) (Klebsiella Pneumoniae; [18]): 2 µg/mL | Minimal Inhibitory Concentration (MIC) (Klebsiella Pneumoniae; [19]): 1 µg/mL

C[C@H]1COc2c(N3CCN(C)CC3)c(F)cc3c(=O)c(C(=O)O)cn1c23 [Levofloxacin, levofloxacin, reference compound]
MIC (Shigella flexneri; ATCC12022, read-out: Minimal Inhibitory Concentration (MIC)): 0.06 µg/mL (≈ 0.166 µM) | MIC (Acinetobacter baumannii; ATCC19606, Acinetobacter baumannii ATCC 19606): 0.25 µg/mL (≈ 0.692 µM) | MIC (Acinetobacter baumannii; Acinetobacter baumannii 16-16): 16 µg/mL (≈ 44.3 µM) | MIC (Acinetobacter baumannii; Acinetobacter baumannii 16-33): 2 µg/mL (≈ 5.53 µM) | MIC (Enterobacter aerogenes; Klebsiella aerogenes, ATCC13048, read-out: Minimal Inhibitory Concentration (MIC)): 0.06 µg/mL (≈ 0.166 µM) | MIC (Serratia marcescens; ATCC21074, read-out: Minimal Inhibitory Concentration (MIC)): 0.12 µg/mL (≈ 0.332 µM) | MIC (Escherichia coli; ATCC25922, Escherichia coli ATCC 25922, ESBLs(−)): ≤ 0.03 µg/mL | MIC (Escherichia coli; ATCC35218, Escherichia coli ATCC 35218, ESBLs(+)): ≤ 0.03 µg/mL | MIC (Escherichia coli; [3]): 16 µg/mL (≈ 44.3 µM) | MIC (Escherichia coli; [4]): 32 µg/mL (≈ 88.6 µM) | MIC (Escherichia coli; [5]): 32 µg/mL (≈ 88.6 µM) | MIC (Escherichia coli; [6]): 0.5 µg/mL (≈ 1.38 µM) | MIC (Escherichia coli; [7]): 0.5 µg/mL (≈ 1.38 µM) | MIC (Escherichia coli; [8]): 8 µg/mL (≈ 22.1 µM) | MIC (Escherichia coli; [11]): 8 µg/mL (≈ 22.1 µM) | MIC (Salmonella typhi; Salmonella enterica, TYPHI, read-out: Minimal Inhibitory Concentration (MIC)): ≤ 0.03 µg/mL | MIC (Citrobacter freundii; ATCC43864, read-out: Minimal Inhibitory Concentration (MIC)): ≤ 0.03 µg/mL | MIC (Providencia rettgeri; Providencia rettgeri, ATCC31052, Providencia rettgeri ATCC 31052, read-out: Minimal Inhibitory Concentration (MIC)): ≤ 0.03 µg/mL | MIC (Proteus vulgaris; Proteus vulgaris, ATCC29905, Proteus vulgaris ATCC 29905, read-out: Minimal Inhibitory Concentration (MIC)): ≤ 0.03 µg/mL | MIC (Pseudomonas aeruginosa; ATCC27853, Pseudomonas aeruginosa ATCC 27853): 1 µg/mL (≈ 2.77 µM) | MIC (Pseudomonas aeruginosa; Pseudomonas aeruginosa 16-11): 0.5 µg/mL (≈ 1.38 µM) | MIC (Pseudomonas aeruginosa; Pseudomonas aeruginosa PAO1): 4 µg/mL (≈ 11.1 µM) | MIC (Proteus mirabilis; Proteus mirabilis, ATCC49565, Proteus mirabilis ATCC 49565, read-out: Minimal Inhibitory Concentration (MIC)): ≤ 0.03 µg/mL | MIC (Enterobacter cloacae; ATCC43560, Enterobacter cloacae ATCC 43560): ≤ 0.03 µg/mL | MIC (Enterobacter cloacae; [14]): 32 µg/mL (≈ 88.6 µM) | MIC ([1]; ATCC13636, read-out: Minimal Inhibitory Concentration (MIC)): 2 µg/mL (≈ 5.53 µM) | MIC (Klebsiella Pneumoniae; ATCC700603, Klebsiella Pneumoniae ATCC 700603, ESBLs(+)): 0.5 µg/mL (≈ 1.38 µM) | MIC (Klebsiella Pneumoniae; ATCCBAA2146, Klebsiella Pneumoniae ATCC BAA-2146, NDM-1(+)): 128 µg/mL (≈ 354 µM) | MIC (Klebsiella Pneumoniae; [15]): 16 µg/mL (≈ 44.3 µM) | MIC (Klebsiella Pneumoniae; [16]): 0.06 µg/mL (≈ 0.166 µM) | MIC (Klebsiella Pneumoniae; [17]): 0.5 µg/mL (≈ 1.38 µM)
